Results from US8524861B2, “Treatment of bacterial infections” (priority 2004, dated 2013).
Entries after “also recorded” stand apart in the source; their conditions may differ. Where no end group is shown, it is not given here.

What was measured:
[1] = system: Staphylococcus aureus (ATCC strain 6538P); assay type: cell-based; conditions: ATCC strain 6538P
Description: (§1) Bacterial Stocks—ATCC derived stock bacteria were obtained from Oxoid Limited. Pseudomonas aeruginosa (ATCC strain 9027) or Staphylococcus aureus (ATCC strain 6538P) were obtained in ‘Cultiloop’ format. Stocks were prepared by inoculating 20 ml of LB broth with a single Cultiloop, and incubating overnight at 37° C. Cells present after overnight incubation were harvested by removing larger aggregates by centrifugation (3000 g, 10 minutes), and withdrawing 16 ml of the supernatant, which was likely to contain mainly planktonic bacteria. To this, 4 ml of sterile glycerol was added (the latter having been sterilised by autoclaving). The resultant suspension was divided between 15× 1 ml cryovials before freezing at −85° C.
(§2) Preliminary experiments were carried out to estimate the amount to dilute bacterial stocks which when on addition of 25 μl of diluted stock to 100 μl of fresh LB broth would result in bacteria in log phase growth after overnight incubation at 37° C.
(§3) The peptides were examined for antibacterial efficacy against Staphylococcus aureus. To test the efficacy of peptides, dilutions of test peptides or PBS (for use as a control) were prepared in LB broth, and 100 μl aliquots of these placed in 96-well plates. A vial of planktonic bacterial stock was thawed in a 37° C. incubator and diluted to the level previously determined which would produce log phase growth after overnight incubation (see above). 25 μl of this bacterial dilution was then added to the test wells (some wells containing LB broth without peptide were left without any bacterial inoculation, these being used as a blank). After overnight growth, the concentration of bacteria in individual wells was assessed by measuring absorbance at 620 nm, in a microplate spectrophotometer. The average absorbance of wells for specific concentrations of peptides was calculated, and from this the percentage inhibition (relative to untreated wells) was also calculated and plotted against concentration (along with an estimate of error on that % inhibition).
(§4) The inventor constructed an expanded library of peptides derived from either apolipoprotein B or apolipoprotein E in order to further evaluate polypeptides in accordance with the invention. Further experiments were then conducted to investigate the antibacterial activity of this peptide library against the bacteria P. aeroginosa, S. aureus and S. pneumoniae. The methods used to determine the IC50 values for each peptide were as described in the Example 1.

[2] = system: Staphylococcus aureus, Pseudomonas aeruginosa, and Streptococcus pneumoniae; test: Antibacterial activity, overall statements over the test bacteria; assay type: cell-based
Text: The inventors conducted exhaustive experiments to assess the antibacterial activity of peptides from apolipoproteins and derivatives thereof. Peptides and derivatives from ApoE and ApoB were a particular focus. […] Example 1 illustrates the efficacy of the polypeptides according to the invention compared to apoE141-149 and apoB3359-3367 (i.e. non-tandem repeats) and other peptides derived from apolipoproteins.
The activity of polypeptides in accordance with the invention can be seen in Tables 5, 6, 7 and 8.
as §3, §4

[3] = system: Pseudomonas aeruginosa (ATCC strain 9027); assay type: cell-based; conditions: for IC50: ATCC strain 9027
Description: as §1, §2, §3
Peptides in accordance with the invention were also examined for antibacterial efficacy against Pseudomonas aeruginosa using the same technique as described above to calculate the IC50 values.
Points were obtained by dividing the average for six treated wells by the average for six untreated wells, and bars show an estimate of the error for these calculated values.
as §4

[4] = system: Saccharomyces cerevisiae yeast cells (strain GenT01); test: Gentronix GreenScreen GC yeast genotoxicity assay; assay type: cell-based; conditions: concentrations up to and including 100 μM, FIGS. 6A-6C
Description: A liquid handling robot is used to produce a serial dilution series of each test compound in a 96-well, black microplate with an optically clear base. […] In addition, a series of genotoxic and cytotoxic standards and non-toxic controls are run to provide internal quality control. The plates are covered with a breathable membrane and incubated overnight, without shaking, at 25° C.
After incubation, the microplates are uncovered and data collected using a Tecan Ultra 384 microplate reader. This instrument provides measurements of light absorbance and fluorescence in microplates; a standard fluorescein filter set (excitation 485/25 and emission 535/25) is used. Absorbance is read at 620 nm and is proportional to cell proliferation (which is lowered by toxic analytes). Fluorescence is proportional to the activity of the DNA repair system (increased by genotoxic analytes). The yeast cultures used are a genetically modified strain that express a green fluorescent protein whenever the cells carry out DNA damage repair. Fluorescence is normalised to the absorbance signal to correct for variation in cell yield caused by any cytolytic activity of the test compounds against the yeast cells. This produces a “fluorescence per cell” measurement termed “brightness”. In addition to the Gentronix Assay yeast strain (GenT01), a control Saccharomyces cerevisiae strain (GenC01) is also used, which is identical except for its ability to produce green fluorescent protein is disabled. This strain is used to provide a control to allow correction for substances which may be either autofluorescent themselves or which induce an autofluorescence in the yeast cells. The data collected is simply transferred into a Excel template where result evaluation sheets are automatically produced. The sheets contain the processed results in both a graphical and tabulated format, with automatic assessment of the result, i.e. positive or negative, and calculation of the lowest effective concentration (LEC), for both genotoxicity and cytotoxicity. […]

Streptococcus pneumoniae = assay type: cell-based
Description: as §3, with “inhibition). […] The inventor constructed an expanded library of peptides derived from either apolipoprotein B or apolipoprotein E in order to further evaluate polypeptides in accordance with the invention. Further experiments were then conducted to investigate the antibacterial activity of this peptide library against the bacteria P. aeroginosa, S. aureus and S. pneumoniae. The methods used to determine the IC50 values for each peptide were as described in the Example 1.” for “inhibition).”

bacteria = conditions: Peptides, 21: 327-330 (2000); cited from earlier work

Substance | IC50 [1] [µM] | Antibacterial activity, in words, bacterium not specified [2] | IC50 [3] [µM] | Effectiveness against Pseudomonadales, in particular P. aeruginosa, in words ([3]; summary in description) | Genotoxic response in test yeast strain (GenT01) [4] | IC50 (Streptococcus pneumoniae) [µM] | Antibacterial activity reported by Azuma et al., in words (bacteria)
Ac-WRKWRKRWWLRKLRKRLL-NH2 [GIN 34] | 7 | particularly effective | 3 | particularly effective | failed to produce any genotoxic response | – | –
Ac-WRWRKRWRKWRWRKRWRK-NH2 [MU_27] | – | – | – | – | failed to produce any genotoxic response | 46 | –
HRWRKRWRKHRWRKRWRK-NH2 (C-terminus assumed) [MU_36] | 40 | – | > 53 | – | – | > 53 | –
HRWRKRWRKWRWRKRWRK-NH2 (C-terminus assumed) [MU_31] | 17 | – | 12 | – | – | 42 | –
KRWRKRWRKWRWRKRWRK-NH2 (C-terminus assumed) [MU_29] | 23 | – | 7.5 | – | – | 52 | –
LRVRLASHLRKLRKRLLRDADDLQKRLAVY [apoE133-162, 30-mer monomeric peptide of Azuma et al] | – | – | – | – | – | – | comparable with that of the antibiotic gentamicin
LRWRKRWRKLRWRKRWRK-NH2 (C-terminus assumed) [MU_35] | 31 | – | 23 | – | – | 53 | –
LRWRKRWRKWRWRKRWRK-NH2 (C-terminus assumed) [MU_30] | 15 | particularly effective | 15 | – | – | 38 | –
RRKRRKRRRRRKRRKRRR-NH2 (C-terminus assumed) [MU_16] | – | – | > 53 | – | – | > 53 | –
RRWRKRWRKRRWRKRWRK-NH2 (C-terminus assumed) [MU_33] | 38 | – | > 53 | – | – | 53 | –
RRWRKRWRKWRWRKRWRK-NH2 (C-terminus assumed) [MU_28] | 15 | particularly effective | 11.5 | – | – | 46 | –
RWRKRWRKWRWRKRWRK-NH2 (C-terminus assumed) [MU_32] | 15 | particularly effective | 12 | – | – | 46 | –
apoE134-155: Azuma's shorter apoE peptide, stated as 18 amino acids in length (RVRLASHLRKLRKRLLRDADDL; UniProt P02649 152-173, looked up, fragment) | – | – | – | – | – | – | no activity at all
apoE134-159: Azuma's shorter apoE peptides, label printed for both a 22 and a 26 amino acid peptide (RVRLASHLRKLRKRLLRDADDLQKRL; UniProt P02649 152-177, looked up, fragment) | – | – | – | – | – | – | very low antibacterial activity; also recorded: greatly reduced antibacterial activity
